≈ marks a conversion by molar mass, not a printed value.
Legend:
[1] = tested on: S. agalactiae^R (13B317), levofloxacin-resistant S. agalactiae; assay: MIC, broth microdilution (CLSI), clinical isolate; type: cell-based; conditions: Streptococcus agalactiae; levofloxacin-resistant S. agalactiae (13B317)
Source text: (§1) 6 standard strains and 3 clinical isolates were used to the preliminary evaluation of in vitro antibacterial activities of oxazolidinone-fluoroquinolone hybrids. For the further evaluation of hybrids OBP-4 and OBP-5, 263 clinical isolates including S. aureus (46), S. haemolyticus(32), S. epidermidis (10), E. faecalis (72), E. faecium (47), S. pneumoniae (13), H. parasuis (34), S. suis (9), and 8 resistant strains including MRSA, MRSE, CIP-resistant S. aureus and S. haemolyticus, VAN and quinolone-resistant S. pneumoniae, LZD-resistant E. faecalis, LZD/VAN and quinolone-resistant E. faecium were collected and tested.
(§2) Susceptibility testing of oxazolidinone-fluoroquinolone hybrids against various bacteria was performed by the broth microdilution method as outlined by the Clinical and Laboratory Standards Institute (CLSI). Three types of media, including cation-adjusted Mueller Hinton broth, Haemophilus Test Medium and cation-adjusted Mueller Hinton broth that contained 3%–5% lysed horse blood, were used to culture the corresponding bacteria. All compounds including comparator drugs were dissolved in an appropriate solvent at a concentration of 2.048 mg/mL and then serially diluted two-fold to provide the required concentrations. A final inoculum of 5 × 10^5 CFU/mL was used and plates were read after incubation for 16–24 h at 35 °C. […] Standard quality control strains (ATCC) were included throughout. Each determination was repeated in triplicate.

MRSA (13B262) = assay: MIC, broth microdilution (CLSI), clinical isolate; type: cell-based; conditions: Staphylococcus aureus
Source text: as §1, §2

VRE (13B330) = assay: MIC, broth microdilution (CLSI), clinical isolate; type: cell-based, vancomycin-resistant enterococcus; conditions: Enterococcus
Source text: as §1, §2

[2] = tested on: S. pneumoniae (ATCC49619); assay: MIC, broth microdilution (CLSI), standard strain; type: cell-based; conditions: Streptococcus pneumoniae
Source text: as §1, §2

[3] = tested on: P. Aeruginosa (ATCC27853); assay: MIC, broth microdilution (CLSI), standard strain; type: cell-based; conditions: Pseudomonas aeruginosa; P. Aeruginosa (ATCC27853); read-out: MIC
Source text: as §1, §2

S. aureus (ATCC29213) = assay: MIC, broth microdilution (CLSI), standard strain; type: cell-based; conditions: Staphylococcus aureus
Source text: as §1, §2

E. faecalis (ATCC29212) = assay: MIC, broth microdilution (CLSI), standard strain; type: cell-based; conditions: Enterococcus faecalis; E. faecalis (ATCC29212); read-out: MIC
Source text: as §1, §2

[4] = tested on: H. influenzae (ATCC49247); assay: MIC, broth microdilution (CLSI), standard strain; type: cell-based; conditions: Haemophilus influenzae
Source text: as §1, §2

E. coli (ATCC25922) = assay: MIC, broth microdilution (CLSI), standard strain; type: cell-based; conditions: Escherichia coli; E. coli (ATCC25922); read-out: MIC
Source text: as §1, §2

Row | SMILES | MIC [1] | MIC (MRSA (13B262)) | MIC (VRE (13B330)) | MIC [2] | MIC [3] | MIC (S. aureus (ATCC29213)) | MIC (E. faecalis (ATCC29212)) | MIC [4] | MIC (E. coli (ATCC25922))
1 | C[C@H]1COc2c(N3CCC(O)(COc4ccc(N5C[C@H](CO)OC5=O)cc4F)CC3)c(F)cc3c(=O)c(C(=O)O)cn1c23 [OBP-2] | 0.25 µg/mL (≈ 0.416 µM) | 1 µg/mL (≈ 1.66 µM) | 1 µg/mL (≈ 1.66 µM) | 0.25 µg/mL (≈ 0.416 µM) | 64 µg/mL (≈ 106 µM) | 0.25 µg/mL (≈ 0.416 µM) | 1 µg/mL (≈ 1.66 µM) | 0.5 µg/mL (≈ 0.831 µM) | 4 µg/mL (≈ 6.65 µM)
2 | C[C@H]1COc2c(N3CCC(O)(COc4ccc(N5C[C@H](CO)OC5=O)cc4F)CC3)c(F)c(N)c3c(=O)c(C(=O)O)cn1c23 [OBP-3] | 0.5 µg/mL (≈ 0.811 µM) | 2 µg/mL (≈ 3.24 µM) | 2 µg/mL (≈ 3.24 µM) | 0.5 µg/mL (≈ 0.811 µM) | 128 µg/mL (≈ 208 µM) | 2 µg/mL (≈ 3.24 µM) | 1 µg/mL (≈ 1.62 µM) | 2 µg/mL (≈ 3.24 µM) | 64 µg/mL (≈ 104 µM)

— article PMC6514978, “Synthesis, Antibacterial Activities, Mode of Action and Acute Toxicity Studies of New Oxazolidinone-Fluoroquinolone Hybrids” (Molecules, 2019)
